The source of these data is US20120203161A1, “DEUTERATED WATER AND RIBOFLAVIN SOLUTION FOR EXTENDING SINGLET OXYGEN LIFETIMES IN TREATMENT OF OCULAR TISSUE AND METHOD OF USE” (SEROS MEDICAL, LLC, priority 2009, published 2012).

The test system of the data set is endothelial cell.

Take `[2H]O[2H]` [deuterated water, deuterium oxide]: the endothelial cell apoptosis entry is “does not induce endothelial cell apoptosis”.
